Results: US20080280810A1, “PEPTIDES HAVING AFFINITY FOR BODY SURFACES” (priority 2006, published 2008)

What was measured:
[1] = Color retention after shampoo treatment, peptide as sealant with Basic Violet 2 dye; parameters: species or system human; details: for Delta E: 0.50 wt % Basic Violet 2, peptide 0.25 wt %, 30 min contact, after 10 shampoo treatments, dye alone 37.34; for hair color retention compared to the dye alone (in words): Basic Violet 2, by Delta E values, vs Comparative Example 13
Procedure: (§1) The peptides used in this Example were prepared as described in Examples 1 and 2. The color retention was quantified using a spectrophotometric measurement technique. A peptide given as SEQ ID NO:41 or SEQ ID NO:42 (38 mg), produced via fermentation as described in Examples 1 and 2, was added to 15 g of an aqueous 0.50 wt % solution of Basic Violet 2 (Abbey Color, Philadelphia, Pa.) and the solution was allowed to stir for 1 h. A natural white hair tress (1 cm wide, potted, International Hair Importers & Products Inc., Bellerose, N.Y.) was inserted into a 15 mm×125 mm test tube and 13 mL of the peptide/dye mixture was injected into the test tube. The hair tress was immersed in contact with the colorant solution for 30 min and the colorant solution was agitated using a magnetic stirrer. The tress was removed, allowed to drip dry, and then air dried for 30 min. The hair tress was then subjected to a water rinse using copious amounts of deionized water, followed by a shampoo treatment with embrocation for 30 seconds. The shampoo treatment involved the application of Pantene Pro-V Sheer Volume shampoo (Proctor & Gamble, Cincinnati, Ohio) to the hair as follows. A quarter-sized drop of the shampoo was distributed evenly over the hair tress and then was massaged aggressively into the hair for 30 sec, after which the hair tress was rinsed with water to remove the shampoo. The hair tress was then dried at room temperature. The shampooing step was repeated 9 more times to give a total of 10 shampoo treatments. The entire procedure described above was repeated without the addition of the hair-binding peptide to serve as a control. The color intensity after the shampoo was measured as described in Examples 4-7.

[2] = Color retention after shampoo treatment, peptide as sealant with Basic Red 2 dye; parameters: species or system human; details: 0.25 wt % Basic Red 2, peptide 0.25 wt %, 60 min contact, after 10 shampoo treatments; dye alone 29.70
Procedure: as §1, with “an aqueous 0.25 wt %” for “an aqueous 0.50 wt %”, “of Basic Red 2 (Abbey” for “of Basic Violet 2 (Abbey”, “solution for 60 min and” for “solution for 30 min and”, “as follows. […] The color” for “as follows. A quarter-sized drop of the shampoo was distributed evenly over the hair tress and then was massaged aggressively into the hair for 30 sec, after which the hair tress was rinsed with water to remove the shampoo. The hair tress was then dried at room temperature. The shampooing step was repeated 9 more times to give a total of 10 shampoo treatments. The entire procedure described above was repeated without the addition of the hair-binding peptide to serve as a control. The color”

[3] = Co-application of multi-block peptide with semi-permanent dye (Arianor Ebony), color retention; parameters: species or system human; key: ΔE of peptide sample minus peptide-free control; larger = better retention; details: difference in Delta E between peptide sample and peptide free control after 3 embrocation cycles (about 12 manual shampoos); pH 8.5-9.0; >2 benefit, >4 substantial benefit
Procedure: A 0.5% aqueous solution of Arianor Ebony (Sensient Technologies Corp, Milwaukee, Wis.) containing 3% benzyl alcohol and 0.05% diazolidinyl urea (biocide) was prepared. Dye insolubles were removed by filtration and the pH of the dye solution was adjusted to 8.50-9.0, using ethanolamine.
Approximately 1 mL of the dye solution was added to selected wells of a 24-well plate (Thomson Instrument Co., Oceanside, Calif.; part # 931565). A multi-block peptide (see Table 12) was dissolved in a solution consisting of 3 wt % benzyl alcohol and 95 wt % water to yield a peptide concentration of 2 wt % or approximately 20 mg/mL. The pH was adjusted to 8.5-9.0 using ethanolamine. The peptide solution was then pipetted into test wells containing dye solution in the amount of 1 mL or 0.2 mL respectively. The total volume in each test well was then adjusted to 2 mL where necessary using 3% aqueous benzyl alcohol (pH adjusted to 8.5-9.0 with ethanolamine). Peptide free controls consisted of 1 mL of dye solution diluted to 2 mL with the pH adjusted aqueous benzyl alcohol solution.
Baseline […] readings were made on one inch long tresses (see below) using an X-RITE® SP78™ Sphere Spectrophotometer (X-Rite, Inc., Grandville, Mich.), by placing the hair tress into the photosensor and calculating L*, a* and b* parameters representing the photometer response. All measurements were the average of three individual determinations.
The tresses (potted on one end with resin) of natural white, 85% gray or regular bleached hair (International Hair Importers and Products, Bellerose, N.Y.) were immersed in the peptide/dye solution and the entire well plate was agitated on a VORTEX-GENIE® 2 Mixer (Scientific Industries, Bohemia, N.Y.) at a speed setting of 1 for 30 minutes. The tresses were removed from the wells, rinsed for 30 seconds under flowing deionized water and then air dried.
The following complement of beads was then added to each well containing a hair tress: (8 beads in all; 4 Novagen Coli Rollers Plating Beads—sterilized (EMD Biosciences, San Diego, Calif.; Catalog No. 71013), 2 BioSpec 6.35 mm glass beads (BioSpec Products, Bartlesville, Okla.; Catalog No. 11079635), and 2 BioSpec 3.2 mm Stainless Steel Bead (Catalog No. 11079132ss).
Then 2.5 mL of aqueous 50% Pantene Pro V® shampoo (Proctor & Gamble Co., Cincinnati, Ohio) was pipetted into each well. The plate was placed on a VWR® VX-2500 Multi-tube Vortexer (VWR, West Chester, Pa.) for 5 minutes to simulate shampooing with embrocation. The hair tresses were then rinsed under flowing deionized water and air dried. This cycle was repeated two more times except that the length of time was 10 minutes for both subsequent embrocation cycles. (This treatment was previously determined to simulate approximately 12 manual shampoo cycles.) At the conclusion of the third embrocation cycle L*, a* and b* values were measured and Delta E values (ΔE) were calculated using equation 1 below:
where L*=the lightness variable and a* and b* are the chromaticity coordinates of CIELAB colorspace as defined by the International Commission of Illumination (CIE) (Minolta, Precise Color Communication—Color Control From Feeling to Instrumentation, Minolta Camera Co., 1996).
The Delta E value (ΔE) indicates color retention relative to the non-dyed hair and larger Delta E values indicate better performance. Values listed in the table represent the difference in Delta E values between the peptide-containing sample and the peptide free control. This difference is indicative of color retention after shampoo or water rinse treatments and positive values indicate better performance relative to the peptide free controls (Table 12).

Substance	Delta E [1]	hair color retention compared to the dye alone (in words) [1]	Delta E [2]	ΔE Retention Ebony Dye Regular Bleached Hair [3]	ΔE Retention Ebony dye with Natural White Hair [3]
P-TPPELLHGAPRS-KRKRK-D (PTPPELLHGAPRSKRKRKD; Peptide having affinity for hair) [HC 71]	37.02	no improvement in hair color retention	32.36	1.9	5.2
P-EQISGSLVAAPW-KRKRK-D (PEQISGSLVAAPWKRKRKD; Peptide having affinity for hair) [HC 74]	38.91	a small improvement in hair color retention	33.64	0.1	8.5
